Patent US9040547B2, “Pyrrolopyrimidine and purine derivatives” (PFIZER INC., priority 2011, dated 2015)

How the values were obtained:
Format in all cases: cell-based
[1] = target: T1, EGFR L858R+T790M, endogenous (Homo sapiens, UniProt P00533, L858R/T790M); test: pEGFR Y1068 ELISA assay, NCI-H1975 cells; details: value marked (H1975): NCI-H1975 cells, 2 hrs compound treatment; read-out: pEGFRY1068 ELISA3T3T790M—L858R IC50 (nM), (H1975);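 further: sandwich ELISA of endogenous phospho-EGFR (Tyr1068) in lysates of treated cells, 11-point 1:3 serial dilution tested in duplicate per plate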
T1 construct: NCI-H1975 (EGFR L858R+T790M, endogenous); host or cells: NCI-H1975

[2] = target: T2, EGFR wildtype, endogenous (Homo sapiens, UniProt P00533); test: pEGFR Y1068 ELISA assay, A549 cells; details: full serum media, stimulated 10 min with EGF (40 ng/mL), read-out: pEGFRY1068 ELISAA549 IC50;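 further: sandwich ELISA of phospho-EGFR Tyr1068 in cell lysates, cells exposed to compound for 2 h before EGF stimulation, 11-point threefold dilution series run in duplicate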
T2 construct: A549 (EGFR wildtype, endogenous); host or cells: A549

EGFR L858R, endogenous = target: T3, EGFR L858R, endogenous (Homo sapiens, UniProt P00533, L858R); test: pEGFR Y1068 ELISA assay, NCI-H3255 cells; details: value marked (H3255): NCI-H3255 cells, 2 hrs compound treatment; read-out: pEGFRY1068 ELISA3T3 L858R IC50 (nM), (H3255)
T3 construct: NCI-H3255 (EGFR L858R, endogenous); endogenous in cells; host or cells: NCI-H3255

EGFR Del (PC9) = target: T4, EGFR Del (PC9) (Homo sapiens, UniProt P00533, DEL746-750); test: EGFR ELISA, PC9 Del cells; details: read-out: EGFR_ELISA9E PC9 Del IC50;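 further: cellular EGFR autophosphorylation at Tyr1068 quantified by sandwich ELISA of cell lysates after 2 h compound exposure at 37 °C, 11-point threefold dilution series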
T4 construct: endogenous in cells; host or cells: PC-9

PC-9 = test: Cell proliferation assay (CellTiter-Glo), PC-9; details: Homo sapiens, value marked (PC9), read-out: 3T3 del IC50, (PC9)
Protocol: (§1) Cell proliferation was measured using the CellTiter-Glo® Luminescent Cell Viability Assay. The assay involves the addition of a single reagent (CellTiter-Glo® Reagent) directly to cells cultured in serum-supplemented medium. The assay uses this one-step addition to induce cell lysis and generate a luminescent signal proportional to the amount of ATP present which is directly proportional to the number of metabolically active cells present in culture. The following cell lines were evaluated in this assay: NIH3T3/EGFR_L858R, NIH3T3/EGFR_E746-A750_deletion, NIH3T3/EGFR L858R+T790M, NIH3T3/EGFR_E746-A750_deletion+T790M, PC-9, PC9-DRH, NCI-H1975, and NCI-H3255. NIH/3T3 parental cells, NCI-H1975, and NCI-H3255 were purchased from the American Type Culture Collection (Manassas, Va.), and PC-9 cells were obtained from Japan. All cells were cultured according to recommendations. NIH/3T3 cells were grown in DMEM (Invitrogen, Carlsbad, Calif.) supplemented with 10% newborn calf serum (Invitrogen), and NIH3T3/EGFR mutant cells were grown in complete media with 5 μg/mL puromycin (Invitrogen). PC-9, NCI-H1975, and NCI-H3255 were grown in RPMI (Invitrogen, Carlsbad, Calif.) supplemented with 10% FBS (Sigma, St Louis, Mo.), and PC9-DRH cells were grown in complete media with 2 uM PF-00299804. Plasmids (pLPCX) with various EGFR constructs were made by GenScript (Piscataway, N.J.), and stable pools of NIH/3T3 cells expressing these constructs were made at Pfizer La Jolla. PC9-DRH cells were generated at Pfizer La Jolla by exposing cells to increasing concentrations of PF-00299804. Cells were plated in complete culture media (3000-5000 cells/well, 50 μl/well) on the bottom of white clear-bottom tissue culture treated microtiter plates (#3610, Corning Inc, Corning, N.Y.) and allowed to adhere overnight at 37° C., 5% CO2. The following day, compound dilution plates were prepared in 96 well clear V-bottom 0.5 mL polypropylene block plates (#3956, Corning, Inc). All cell lines were not evaluated for each compound. Each compound evaluated was prepared as a DMSO stock solution (10 mM). Compounds were tested in duplicate on each plate, with an 11-point serial dilution curve (1:3 dilution). Compound treatment (50 μl) was added from the compound dilution plate to the cell plate. The highest compound concentration was 1 or 10 μM (final), with a 0.3% final DMSO (#D-5879, Sigma, St Louis, Mo.) concentration. Plates were then incubated at 37° C., 5% CO2. After three to five days of compound treatment, CellTiter-Glo® Reagent (#G7573, Promega, Madison, Wis.) was prepared in one of two ways. If thawing a frozen aliquot of CellTiter-Glo® Reagent, the aliquot was thawed and equilibrated to room temperature prior to use while keeping it protected from light. Alternatively, new bottles of CellTiter-Glo® Buffer and CellTiter-Glo® Substrate were thawed and equilibrated to room temperature prior to use. CellTiter-Glo® Buffer (100 mL) was transferred into the amber bottle containing CellTiter-Glo® Substrate to reconstitute the lyophilized enzyme/substrate mixture, forming the CellTiter-Glo® Reagent. The reconstituted reagent was mixed by gently inverting the contents to obtain a homogeneous solution, and went into solution easily in less than one minute. Any unused reconstituted CellTiter-Glo® Reagent was immediately aliquoted and frozen at −20° C., protected from light. Cell plates were equilibrated at room temperature for approximately 30 minutes. An equivolume amount of CellTiter-Glo® Reagent (100 μL) was added to each well. Plates were mixed for two minutes on an orbital shaker to induce cell lysis, and then allowed to incubate at room temperature for 10 minutes to stabilize the luminescent signal. Luminescence was recorded using the PerkinElmer EnVision Excite Multilabel Reader used for endpoint reading for Luminescence detection (Waltham, Mass.). Data were analyzed using a four-parameter fit in Microsoft Excel. […]

PC9-DRH = test: Cell proliferation assay (CellTiter-Glo), PC9-DRH; details: value marked (PC9-DRH), read-out: 3T3 del_T790M IC50, (PC9-DRH)
Protocol: as §1

NIH3T3/EGFR L858R+T790M = test: Cell proliferation assay (CellTiter-Glo), NIH3T3/EGFR L858R+T790M; details: Mus musculus, NIH3T3, 120 h, 3T3 cell line, three to five days of compound treatment, read-out: 3T3 L858R_T790M IC50
NCI-H3255 = test: Cell proliferation assay (CellTiter-Glo), NCI-H3255; details: Homo sapiens, value marked (H3255), read-out: 3T3 L858R IC50, (H3255)
Protocol: as §1

EGFR L858R+T790M = EGFR L858R+T790M (Homo sapiens, UniProt P00533, L858R/T790M); test: pEGFR Y1068 ELISA assay, NIH3T3/EGFR_L858R+T790M cells; details: 3T3 cell line, 2 hrs compound treatment; read-out: pEGFRY1068 ELISA3T3T790M—L858R IC50;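 further: sandwich ELISA of EGFR phosphorylated at Tyr1068 in lysates of stably transfected NIH/3T3 cells, 11-point threefold dilution series run in duplicate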
[3] = tested on: NIH3T3/EGFR_E746-A750_deletion+T790M; test: Cell proliferation assay (CellTiter-Glo), NIH3T3/EGFR_E746-A750_deletion+T790M; details: Mus musculus, NIH3T3, 120 h, 3T3 cell line, three to five days of compound treatment, read-out: 3T3 del_T790M IC50
Method in brief: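 Cells plated 3000-5000/well, adhered overnight, then treated 3-5 days at 37° C, 5% CO2 with 11-point 1:3 dilutions (top 1 or 10 μM final, 0.3% DMSO), in duplicate. ATP luminescence by CellTiter-Glo; four-parameter fit.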

EGFR L858R = EGFR L858R (Homo sapiens, UniProt P00533, L858R); test: pEGFR Y1068 ELISA assay, NIH3T3/EGFR_L858R cells; details: 3T3 cell line, 2 hrs compound treatment; read-out: pEGFRY1068 ELISA3T3 L858R IC50;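 further: sandwich ELISA of phospho-EGFR Tyr1068 in lysates of stably transfected NIH/3T3 pools after 2 h compound exposure at 37 °C, 11-point threefold dilution series run in duplicate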

T4 sequence (P00533 with tags, fused parts or gaps DEL746-750): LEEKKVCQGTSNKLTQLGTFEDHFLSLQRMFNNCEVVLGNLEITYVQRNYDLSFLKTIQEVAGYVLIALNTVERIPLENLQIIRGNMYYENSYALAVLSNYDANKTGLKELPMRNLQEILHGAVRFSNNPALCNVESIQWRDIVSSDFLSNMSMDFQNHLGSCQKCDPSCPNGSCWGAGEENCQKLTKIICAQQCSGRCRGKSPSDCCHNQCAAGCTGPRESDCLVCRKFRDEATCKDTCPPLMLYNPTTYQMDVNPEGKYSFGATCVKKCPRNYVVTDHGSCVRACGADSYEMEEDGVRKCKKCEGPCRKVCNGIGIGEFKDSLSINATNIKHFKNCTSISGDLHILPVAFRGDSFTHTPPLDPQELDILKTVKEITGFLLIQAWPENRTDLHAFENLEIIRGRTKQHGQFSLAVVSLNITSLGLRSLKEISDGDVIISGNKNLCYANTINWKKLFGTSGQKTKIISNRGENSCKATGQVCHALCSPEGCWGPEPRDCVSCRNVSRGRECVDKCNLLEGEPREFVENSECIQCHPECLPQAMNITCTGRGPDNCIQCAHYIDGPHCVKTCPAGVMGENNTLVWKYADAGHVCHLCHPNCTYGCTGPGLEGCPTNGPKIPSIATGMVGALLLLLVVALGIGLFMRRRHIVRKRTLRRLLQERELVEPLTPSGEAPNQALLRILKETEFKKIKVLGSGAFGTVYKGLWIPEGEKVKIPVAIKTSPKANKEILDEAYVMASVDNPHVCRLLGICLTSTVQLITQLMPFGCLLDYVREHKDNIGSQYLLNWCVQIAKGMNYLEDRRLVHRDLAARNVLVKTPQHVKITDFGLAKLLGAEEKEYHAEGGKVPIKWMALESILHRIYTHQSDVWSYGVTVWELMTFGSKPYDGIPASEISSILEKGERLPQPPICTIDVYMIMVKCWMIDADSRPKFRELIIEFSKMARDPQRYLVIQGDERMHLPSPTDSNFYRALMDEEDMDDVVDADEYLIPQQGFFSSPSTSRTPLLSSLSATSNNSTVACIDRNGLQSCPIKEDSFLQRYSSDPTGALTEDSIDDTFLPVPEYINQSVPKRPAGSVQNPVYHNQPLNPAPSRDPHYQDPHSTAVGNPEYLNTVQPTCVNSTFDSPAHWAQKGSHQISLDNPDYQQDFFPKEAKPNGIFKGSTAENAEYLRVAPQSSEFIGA
T2 sequence (P00533 25-1210): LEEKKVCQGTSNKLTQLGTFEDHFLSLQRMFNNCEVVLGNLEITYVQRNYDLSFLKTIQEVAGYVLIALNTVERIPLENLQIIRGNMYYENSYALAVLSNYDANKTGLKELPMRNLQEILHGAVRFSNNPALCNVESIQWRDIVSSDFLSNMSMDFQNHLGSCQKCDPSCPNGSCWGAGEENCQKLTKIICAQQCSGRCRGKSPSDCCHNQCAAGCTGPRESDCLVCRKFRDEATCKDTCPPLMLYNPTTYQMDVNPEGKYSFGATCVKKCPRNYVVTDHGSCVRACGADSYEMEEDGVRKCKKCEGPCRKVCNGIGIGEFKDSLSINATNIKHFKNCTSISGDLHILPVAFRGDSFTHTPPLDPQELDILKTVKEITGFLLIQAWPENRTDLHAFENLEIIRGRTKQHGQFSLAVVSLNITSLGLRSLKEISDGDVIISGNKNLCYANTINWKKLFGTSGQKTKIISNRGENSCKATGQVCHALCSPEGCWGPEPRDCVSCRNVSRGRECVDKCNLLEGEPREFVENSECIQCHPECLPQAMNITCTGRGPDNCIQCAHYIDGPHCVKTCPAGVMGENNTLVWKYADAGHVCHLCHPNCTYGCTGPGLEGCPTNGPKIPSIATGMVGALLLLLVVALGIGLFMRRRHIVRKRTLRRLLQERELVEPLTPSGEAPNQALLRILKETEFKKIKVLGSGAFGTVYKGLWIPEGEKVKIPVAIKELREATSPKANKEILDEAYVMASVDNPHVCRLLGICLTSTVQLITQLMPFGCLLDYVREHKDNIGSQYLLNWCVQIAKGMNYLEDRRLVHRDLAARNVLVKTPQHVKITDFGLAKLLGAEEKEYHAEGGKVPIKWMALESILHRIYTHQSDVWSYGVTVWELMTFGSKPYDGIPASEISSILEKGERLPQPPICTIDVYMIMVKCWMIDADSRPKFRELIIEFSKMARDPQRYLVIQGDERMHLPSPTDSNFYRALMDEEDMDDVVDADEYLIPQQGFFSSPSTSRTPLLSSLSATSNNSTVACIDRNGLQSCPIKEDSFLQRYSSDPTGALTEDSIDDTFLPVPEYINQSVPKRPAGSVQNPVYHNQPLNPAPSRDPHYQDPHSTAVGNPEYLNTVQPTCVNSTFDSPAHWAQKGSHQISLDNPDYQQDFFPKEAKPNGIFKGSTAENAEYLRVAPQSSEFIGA
T3 sequence (P00533 25-1210 L858R): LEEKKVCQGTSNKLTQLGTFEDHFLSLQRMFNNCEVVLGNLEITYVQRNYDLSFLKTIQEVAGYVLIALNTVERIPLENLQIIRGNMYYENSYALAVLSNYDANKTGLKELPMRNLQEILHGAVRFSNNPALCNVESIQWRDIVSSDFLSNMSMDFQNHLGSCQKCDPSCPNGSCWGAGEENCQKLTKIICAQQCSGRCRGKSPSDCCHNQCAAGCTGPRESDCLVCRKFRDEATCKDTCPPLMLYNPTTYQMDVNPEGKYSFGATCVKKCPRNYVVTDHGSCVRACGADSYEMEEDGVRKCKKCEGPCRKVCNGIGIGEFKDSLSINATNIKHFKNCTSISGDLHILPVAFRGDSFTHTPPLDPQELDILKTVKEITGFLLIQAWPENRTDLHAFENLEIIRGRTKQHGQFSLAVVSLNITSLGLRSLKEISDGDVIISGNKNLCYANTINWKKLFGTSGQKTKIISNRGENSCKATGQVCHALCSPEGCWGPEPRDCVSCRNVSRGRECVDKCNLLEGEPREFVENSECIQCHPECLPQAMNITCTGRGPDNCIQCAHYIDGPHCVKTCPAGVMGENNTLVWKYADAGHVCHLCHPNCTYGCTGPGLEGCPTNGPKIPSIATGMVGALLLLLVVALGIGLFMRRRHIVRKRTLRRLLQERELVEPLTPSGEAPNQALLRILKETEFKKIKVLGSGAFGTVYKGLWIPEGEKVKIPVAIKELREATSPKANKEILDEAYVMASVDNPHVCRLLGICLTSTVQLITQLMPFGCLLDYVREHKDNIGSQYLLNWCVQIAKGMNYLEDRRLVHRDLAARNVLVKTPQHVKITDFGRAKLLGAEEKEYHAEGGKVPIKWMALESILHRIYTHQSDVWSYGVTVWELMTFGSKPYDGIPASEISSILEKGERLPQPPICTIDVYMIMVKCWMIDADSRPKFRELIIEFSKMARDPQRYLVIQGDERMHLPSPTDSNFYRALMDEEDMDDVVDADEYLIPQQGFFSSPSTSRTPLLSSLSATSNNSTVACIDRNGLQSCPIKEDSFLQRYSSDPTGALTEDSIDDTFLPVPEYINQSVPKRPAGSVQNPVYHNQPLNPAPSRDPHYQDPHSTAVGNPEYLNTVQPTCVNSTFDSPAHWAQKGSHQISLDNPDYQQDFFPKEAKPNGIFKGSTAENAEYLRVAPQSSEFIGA
Sequence of EGFR L858R+T790M (P00533 25-1210 T790M/L858R): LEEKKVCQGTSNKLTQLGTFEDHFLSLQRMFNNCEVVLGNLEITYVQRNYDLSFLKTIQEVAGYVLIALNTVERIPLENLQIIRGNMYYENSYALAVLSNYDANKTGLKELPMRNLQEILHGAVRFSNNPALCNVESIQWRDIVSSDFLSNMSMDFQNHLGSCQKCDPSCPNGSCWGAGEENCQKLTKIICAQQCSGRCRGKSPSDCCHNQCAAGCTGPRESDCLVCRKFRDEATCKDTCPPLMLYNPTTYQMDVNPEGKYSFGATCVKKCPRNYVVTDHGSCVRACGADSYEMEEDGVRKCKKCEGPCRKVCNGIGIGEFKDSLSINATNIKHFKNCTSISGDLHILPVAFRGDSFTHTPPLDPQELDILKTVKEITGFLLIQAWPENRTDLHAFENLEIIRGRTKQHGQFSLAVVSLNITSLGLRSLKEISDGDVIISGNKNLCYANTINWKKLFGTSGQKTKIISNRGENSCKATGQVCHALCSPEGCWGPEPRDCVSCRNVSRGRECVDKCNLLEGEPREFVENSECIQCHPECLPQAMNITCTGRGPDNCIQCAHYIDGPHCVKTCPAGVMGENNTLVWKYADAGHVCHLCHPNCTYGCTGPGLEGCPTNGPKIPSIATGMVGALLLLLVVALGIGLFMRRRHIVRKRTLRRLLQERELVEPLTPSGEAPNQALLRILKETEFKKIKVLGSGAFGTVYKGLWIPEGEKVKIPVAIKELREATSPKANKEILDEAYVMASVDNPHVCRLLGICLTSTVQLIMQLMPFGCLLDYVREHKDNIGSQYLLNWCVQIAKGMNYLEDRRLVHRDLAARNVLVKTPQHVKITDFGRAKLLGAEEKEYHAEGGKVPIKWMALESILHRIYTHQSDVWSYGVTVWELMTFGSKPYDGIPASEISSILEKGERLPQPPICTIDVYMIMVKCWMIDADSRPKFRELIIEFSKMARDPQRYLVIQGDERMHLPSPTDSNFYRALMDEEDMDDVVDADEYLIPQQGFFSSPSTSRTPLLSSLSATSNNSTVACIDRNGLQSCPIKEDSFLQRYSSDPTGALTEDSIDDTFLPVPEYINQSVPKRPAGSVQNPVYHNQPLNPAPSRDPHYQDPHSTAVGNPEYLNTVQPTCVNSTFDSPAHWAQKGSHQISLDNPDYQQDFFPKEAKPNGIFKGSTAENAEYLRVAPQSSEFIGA

C=CC(=O)N[C@H]1C[C@H](Oc2nc(Nc3cnn(C)c3)nc3[nH]cc(-c4ccccn4)c23)C1 [Example 12, N-[trans-3-({2-[(1-methyl-1H-pyrazol-4-yl)amino]-5-(pyridin-2-yl)-7H-pyrrolo[2,3-d]pyrimidin-4-yl}oxy)cyclobutyl]prop-2-enamide]
IC50 [1]: 689 nM | IC50 [2]: > 10000 nM | IC50 (EGFR L858R, endogenous): 782 nM | IC50 (EGFR Del (PC9)): 2780 nM

C=CC(=O)N(C)[C@H]1C[C@H](Oc2nc(Nc3cnn(C)c3)nc3[nH]cc(-c4cccnc4)c23)C1 [Example 13, N-methyl-N-[trans-3-({2-[(1-methyl-1H-pyrazol-4-yl)amino]-5-(pyridin-3-yl)-7H-pyrrolo[2,3-d]pyrimidin-4-yl}oxy)cyclobutyl]prop-2-enamide]
IC50 (PC-9): 100 to 1000 nM | IC50 [1]: 89 nM | IC50 (PC9-DRH): 100 to 1000 nM | IC50 (NIH3T3/EGFR L858R+T790M): 100 to 1000 nM | IC50 (EGFR L858R, endogenous): 48 nM | IC50 (EGFR Del (PC9)): 91 nM | IC50 (NCI-H3255): 100 to 1000 nM

C=CC(=O)N1CC(Nc2nc(Nc3cnn(C)c3)nc3[nH]cc(Cl)c23)C1 [Example 79]
IC50 [1]: 136 nM | IC50 [2]: > 10000 nM | IC50 (EGFR L858R, endogenous): 776 nM | IC50 (EGFR Del (PC9)): > 6760 nM

C=CC(=O)N(C)[C@H]1C[C@H](Oc2nc(Nc3cn(C)nc3C#N)nc3[nH]cc(Cl)c23)C1 [Example 80]
IC50 [1]: 25 nM | IC50 [2]: > 10000 nM | IC50 (EGFR L858R, endogenous): 273 nM | IC50 (EGFR Del (PC9)): 891 nM

C=CC(=O)N1C[C@H](Nc2nc(Nc3cnn(C)c3)nc3[nH]cc(Cl)c23)[C@H](n2ccnn2)C1 [Example 82]
IC50 [1]: 638 nM | IC50 [2]: > 10000 nM | IC50 (EGFR L858R, endogenous): 973 nM | IC50 (EGFR Del (PC9)): > 10000 nM

C=CC(=O)N1C[C@H](Nc2nc(Nc3cnn(C)c3)nc3[nH]cc(Cl)c23)[C@@H](C(F)F)C1 [Example 85]
IC50 (PC-9): > 1000 nM | IC50 (EGFR L858R+T790M): 191 nM | IC50 (PC9-DRH): 100 to 1000 nM | IC50 (NIH3T3/EGFR L858R+T790M): 10 to 100 nM | IC50 (EGFR L858R, endogenous): 61 nM | IC50 (EGFR Del (PC9)): 154 nM | IC50 (NCI-H3255): 10 to 100 nM

C=CC(=O)N(C)[C@H]1C[C@H](Oc2nc(Nc3cnn(C)c3)nc3[nH]cc(-c4ccn(C)n4)c23)C1 [Example 86]
IC50 [1]: 266 nM | IC50 [2]: > 10000 nM | IC50 (EGFR L858R, endogenous): 477 nM | IC50 (EGFR Del (PC9)): 2340 nM

C=CC(=O)N(C)[C@H]1C[C@H](Oc2nc(Nc3cnn(C)c3)nc3[nH]cc(-c4ccccn4)c23)C1 [Example 89]
IC50 (PC-9): 100 to 1000 nM | IC50 [1]: 6 nM | IC50 [2]: 1650 nM | IC50 (NIH3T3/EGFR L858R+T790M): 10 to 100 nM | IC50 (EGFR L858R, endogenous): 33 nM | IC50 [3]: 10 to 100 nM | IC50 (EGFR Del (PC9)): 42 nM | IC50 (NCI-H3255): 100 to 1000 nM

C=CC(=O)N1C[C@H](COc2nc(Nc3cnn(C)c3)nc3[nH]cc(Cl)c23)[C@@H](F)C1 [Example 90]
IC50 (NCI-H3255): 10 to 100 nM

C=CC(=O)N(C)[C@H]1C[C@H](Oc2nc(Nc3cnn(C)c3)nc3[nH]cc(-c4cnn(C)c4)c23)C1 [Example 95]
IC50 [1]: 1570 nM | IC50 [2]: > 10000 nM | IC50 (EGFR L858R, endogenous): 2440 nM | IC50 (EGFR Del (PC9)): 8570 nM

C=CC(=O)N(C)[C@H]1C[C@H](Nc2nc(Nc3cn(C)nc3C)nc3[nH]cc(Cl)c23)C1 [Example 98]
IC50 (PC-9): 100 to 1000 nM | IC50 (EGFR L858R+T790M): 27 nM | IC50 (PC9-DRH): 10 to 100 nM | IC50 [2]: 4290 nM | IC50 (NIH3T3/EGFR L858R+T790M): 10 to 100 nM | IC50 (EGFR L858R, endogenous): 139 nM | IC50 (EGFR Del (PC9)): 472 nM | IC50 (NCI-H3255): 10 to 100 nM

C=CC(=O)N1C[C@@H]2CN(c3nc(Nc4cn(C)nc4OC)nc4[nH]cc(Cl)c34)C[C@@H]2C1 [Example 99]
IC50 (EGFR L858R): 482 nM | IC50 (PC-9): > 1000 nM | IC50 (EGFR L858R+T790M): 377 nM | IC50 (PC9-DRH): 100 to 1000 nM | IC50 [2]: 3440 nM | IC50 (NIH3T3/EGFR L858R+T790M): 100 to 1000 nM | IC50 (EGFR Del (PC9)): 812 nM | IC50 (NCI-H3255): > 1000 nM

C=CC(=O)N[C@]1(C)C[C@@H](Oc2nc(Nc3cnn(C)c3)nc3[nH]cc(Cl)c23)C1 [Example 113]
IC50 [1]: 457 nM | IC50 [2]: > 10000 nM | IC50 (EGFR L858R, endogenous): > 8580 nM | IC50 (EGFR Del (PC9)): > 10000 nM

C=CC(=O)N1C[C@H](COc2nc(Nc3cn(CC#N)nc3C)nc3[nH]cc(Cl)c23)[C@@H](OC)C1 [Example 115]
IC50 [1]: 73 nM | IC50 [2]: > 10000 nM | IC50 (EGFR L858R, endogenous): 85 nM | IC50 (EGFR Del (PC9)): 953 nM

C=CC(=O)N(C)[C@H]1C[C@H](Oc2nc(Nc3cnn(CC#N)c3)nc3[nH]cc(Cl)c23)C1 [Example 116]
IC50 [1]: 24 nM | IC50 (NIH3T3/EGFR L858R+T790M): 10 to 100 nM | IC50 (EGFR L858R, endogenous): 107 nM | IC50 (EGFR Del (PC9)): 328 nM
